In patent US4260758A, “Pyrazolo (3,4-d) pyrimidines and methods of making” (Burroughs Wellcome Co., priority 1979, dated 1981):

Tested on: Eimeria Tenella (Weybridge) sporozites
Test: in vitro anti-coccidial activity, primary explant cultures of chick embryo liver cells with sporozites
Assay type: cell-based
Conditions: with sulphaquinoxaline 0.01 μg/ml and diaveridine 0.031 μg/ml
Description: The anti-coccidial activity of compounds of formula (III) alone and in combination with a mixture of diaveridine (DV) and sulphaquinoxaline (SQX) in vitro was tested according to the following procedure.
Using standard test procedures employing primary explant cultures of chick embryo liver cells and a suspension of Eimeria Tenella (Weybridge) sporozites the activity of the compounds was determined at various concentrations. In the above test, each test compound was used either alone or in combination with sulphaquinoxaline (0.01 μg/ml) and diaveridine (0.031 μg/ml). It should be noted that the minimum active anti-coccidial amounts of sulphaquinoxaline and diaveridine are 0.024 μg/ml and 0.098 μg/ml respectively.
The following results were obtained wherein activity is expressed as follows: […]

Row | Structure (SMILES) | Activity, with DV/SQX (100 μg/ml) | Activity, with DV/SQX (25 μg/ml)
1 | COC(=O)C1=NN(C)c2nc(N)[nH]c(=O)c2C(c2cc(OC)c(OC)c(OC)c2)=C1 [Example 6, 8-Amino-3-carbomethoxy-1-methyl-5-(3,4,5-trimethoxyphenyl)-1H-pyrimido{4,5-c}-1,2-diazepin-6(7H)-one] | 5 (No parasite development) | –
2 | CCOC(=O)C1=NN(C)c2nc(N)[nH]c(=O)c2C(c2ccc(OC)cc2OC)=C1 [Example 7, 8-Amino-3-carbethoxy-1-methyl-5-(2,4-dimethoxyphenyl)-1H-pyrimido{4,5-c}-1,2-diazepin-6(7H)-one] | 5 (No parasite development) | 5 (No parasite development)
